US20170182070A1, “Controlled Release Doxycycline” (Mayne Pharma International Pty Ltd., priority 2014, published 2017)
Structures can show the parent of a compound that is named as a salt. Where two headings read alike, the source gives them in different places. Values belong to the compound of their own block, whether it stands above or below them.

Tests used:
[1] = cited from earlier work
[2] = In vitro dissolution/release profile, USP <711> Apparatus 1 (baskets); type: physicochemical
Experimental: For the purposes of in vitro testing, a release or dissolution profile may be determined at pH 1.2 using a 0.06 N hydrochloric acid solution, at pH 4.5 using a phosphate buffer using USP <711> test conditions, and at pH 5.0 using a buffer using USP <711> test conditions. Such test conditions can be carried out according to USP <711> dissolution conditions using Apparatus 1 (baskets) in 900 mL of media with stirring at 50 RPM. The in vitro release of the pellets was tested using USP XXIV 2000—Apparatus 1 (baskets). See, e.g., Riaz Uddin, Nadia Saffoon, and Kumar Bishwajit Sutradhar, “Dissolution and Dissolution Apparatus: A Review,” Int. J. Cur. Biomed. Phar. Res., 2011, Vol. 1(4), pgs. 201-207. The acid environment dissolution profile of pellet A and B's formulation can be seen in FIG. 1. The dissolution profile of pellet A and B formulations at elevated pH can be seen in FIG. 2.

[3] = Physicochemical properties of doxycycline forms
[4] = Population pharmacokinetic model of doxycycline plasma concentrations, pooled phase 1 data (Example 8); type: in vivo, human
Experimental: Pharmacokinetic data were available from eight phase 1 clinical trials conducted by Mayne Pharma International. These studies assessed doxycycline plasma concentrations following oral administration of either a 100 mg conventional release doxycycline hyclate capsule, a 75/100/150 or 200 mg Doryx® Delayed-Release tablet or a 120 mg Doryx MPC® Delayed-Release tablet in healthy subjects. For the remainder of the Specification's Example 8, conventional release doxycycline hyclate capsules will be referred to as Doryx capsules, the Doryx® Delayed-Release tablets will be referred to as Doryx tablets, and Doryx MPC® Delayed-Release tablets (formulation code MP336) will be referred to as Doryx MPC.
The available phase 1 clinical trials included six single dose two treatment period studies assessing the influence of formulation or the fed/fasted state on doxycycline concentrations. Two trials were multi-dose studies; with one a single treatment period study and the other a two treatment period study assessing doxycycline plasma concentrations following Doryx capsule or Doryx tablet administration. All studies were conducted in the United States. […] The design and dosing schedules are summarized in […].3. The available studies were assigned a local identifier during model development (10, 20, 30, 40, 50, 60, 70, and 80), as indicated in […].3, and will be referred to by these numbers for the remainder of the Specification.
Studies 10, 20, 30, 50, 60 and 80 were single-dose studies and plasma samples were acquired at nominal times approximate to 0, 0.25, 0.5, 1, 1.5, 2, 2.5, 3, 3.5, 4, 6, 8, 10, 12, 16, 24, 36, 48, 72 and 96 hours after the dose on day 1 of that period. Study 40 was a single treatment period multi-dose study, where participants were dosed 7 times at 24 hour intervals and plasma samples were collected at nominal times of 0, 0.25, 0.5, 1, 1.5, 2, 2.5, 3, 4, 6, 8, 10, 12, 16, 24, 144, 144.25, 144.5, 145, 145.5, 146, 146.5, 147, 148, 150, 152, 156, 160, 168, 180, 192, 216 and 240 hours after the dose on day 1. Study 70 was a two treatment period multi-dose study, where doses were given at 0, 72, 96, 120, 144 and 168 hours after the start of treatment, and plasma samples were collected at nominal times of 0, 0.25, 0.5, 1, 1.5, 2, 2.5, 3, 4, 6, 8, 10, 12, 16, 24, 36, 48, 72, 96, 120, 144, 168, 168.25, 168.5, 169, 169.5, 170, 170.5, 171, 172, 174, 176, 180, 184, 192, 204, 216 and 240 hours after the dose on day 1. Deviations between nominal sampling times and actual sample times were recorded, and the actual times were used during model development. Covariates describing fed status, formulation, sex, age, race, weight, body mass index (BMI), smoking status and study number were available for each individual.
Doxycycline plasma concentrations were measured using validated high performance liquid chromatographic methods, with the lower limits of quantification (LLOQ) of the assays indicated in […].3. All subjects with evaluable pharmacokinetic data were included in the analysis. All studies were conducted according to the International Conference of Harmonisation (ICH) guidelines for good clinical practice, the Declaration of Helsinki on the ethical conduct of medical research, and applicable regulatory requirements. Each subject signed and dated a written informed consent before study participation.
The base model was developed in a step-wise manner. Pharmacokinetic models were coded using the ADVAN5 subroutines of NONMEM. Linear kinetic models with 1, 2 and 3 compartments were evaluated, with absorption models including simple first-order absorption and “transit compartment” models with up to 5 absorption transit compartments assessed. The parameter KTR (transit absorption rate) was used to describe the first-order movement through these absorption compartments. The First Order Conditional Estimation (FOCE) method was used to fit models. […]

[5] = cited from earlier work; remark: listed apart in the source
Plasmodium falciparum = conditions: cited from earlier work

SMILES: CC1c2cccc(O)c2C(=O)C2=C(O)[C@]3(O)C(=O)C(C(N)=O)=C(O)[C@@H](N(C)C)[C@@H]3[C@@H](O)[C@@H]21 (stereo partly drawn) [Doxycycline hyclate, [4S(4aR,5S,5aR,6R,12aS)]-4-(dimethylamino)-1,4,4a,5,5a,6,11,12a-octahydro-3,5,10,12,12a-pentahydroxy-6-methyl-1,11-deoxonapthtacene-2-carboxamide monohydrochloride, compound with ethyl alcohol (2:1), monohydrate]
solubility [1]: soluble in water and in solutions of alkali hydroxides and carbonates

release rates overall ([2]; FIG. 5): low release rates overall
release ([2]; acidic conditions (FIG. 5)): releases readily
solubility ([3]; lower pH values (FIG. 5)): very soluble
solubility ([3]; pH above 3 (FIG. 5)): not very soluble
SMILES: C[C@H]1c2cccc(O)c2C(=O)C2=C(O)[C@]3(O)C(=O)C(C(N)=O)=C(O)[C@@H](N(C)C)[C@@H]3[C@@H](O)[C@@H]21 [doxycycline monohydrate salt]

CL, Clearance ([4]; final model parameter estimate): 4.63 L/h/70 kg FFM
CLP1, Intercompartmental clearance ([4]; final model parameter estimate): 11.3 L/h/70 kg FFM
KTR, Transit compartment rate constant ([4]; final model parameter estimate): 2 h⁻¹
V, Central distribution volume ([4]; final model parameter estimate): 55.2 L/70 kg FFM
VP1, Peripheral distribution volume ([4]; final model parameter estimate): 49.8 L/70 kg FFM
FTLAG2, lag on KTR (absorption) for the fed status ([4]; final model, formulation non-specific): 0.203 h
Fed-state decrease in relative bioavailability ([4]; human, plasma, oral, final model parameter estimate, read-out: COVFEDF, Effect of food on relative bioavailability): 10.5%
female sex increase in clearance ([4]; in vivo): 14.4%
fed status decrease in relative bioavailability (F) ([4]; irrespective of formulation): 10.5%
SMILES: C[C@H]1c2cccc(O)c2C(=O)C2=C(O)[C@]3(O)C(=O)C(C(N)=O)=C(O)[C@@H](N(C)C)[C@@H]3[C@@H](O)[C@@H]21 [doxycycline, (4S,4aR,5S,5aR,6R,12aS)-4-(dimethylamino)-3,5,10,12,12a-pentahydroxy-6-methyl-1,11-dioxo-1,4,4a,5,5a,6,11,12a-octahydrotetracene-2-carboxamide]
peak serum level ([5]; 200 mg dose, at 2 hours, normal adult volunteers): 2.6 µg/mL
serum level ([5]; 200 mg dose, at 24 hours): 1450 ng/mL
absorption after oral administration ([5]; in vivo, po): virtually completely absorbed
half-life ([5]; in vivo): approximately 18 hours
excretion by the kidney ([5]; normal function (creatinine clearance about 75 mL/min)): about 40 %/72 hours
excretion by the kidney ([5]; severe renal insufficiency (creatinine clearance below 10 mL/min)): 1-5 %/72 hours
lipid solubility [1]: high degree of lipid solubility
activity against asexual erythrocytic forms (Plasmodium falciparum): active
activity against gametocytes (Plasmodium falciparum): not against the gametocytes
